Experimental data published in article PMC12406253, “Exploration of the Neuromodulatory Properties of Fyn and GSK-3β Kinases Exploiting 7‑Azaindole-Based Inhibitors” (Journal of Medicinal Chemistry, 2025).

Tests used:
FYNα = FYNα (Homo sapiens, UniProt P06241); test: FYNα kinase assay, LANCE Ultra TR-FRET; format: biochemical; conditions: mean ± SD of at least three independent determinations; ATP near Km; read-out: Fyn IC50
IRAK4(h) = biological target: T1, IRAK4(h) (Homo sapiens, UniProt Q9NWZ3); test: Eurofins KinaseProfiler radiometric kinase assay; format: biochemical; conditions: read-out: IRAK4(h) % Residual activity
T1 construct: purchased Eurofins KinaseProfiler (Eurofins Cerep)

[1] = test system: immortalized murine microglia N9; test: Immunomodulation in LPS-treated N9 microglia, Western blot of iNOS and TREM2; conditions: 2.5 and 5 μM; 100 ng/mL LPS, 24 h
Description: To gain a conclusive answer on the potential role of these kinase inhibitors in counteracting neuroinflammatory processes, after the verified induced astrocytic polarization, the ability of selected compounds to modulate inflammatory response was analyzed by favoring the immunomodulatory switch from neurotoxic M1 phenotype of microglia to phagocytic and neuroprotective M2 phenotype, evaluating inducible nitric oxide synthase (iNOS) and TREM2 as M1 and M2 markers (Figure ).
The microglial phenotype was evaluated through Western blot analysis of the pro-inflammatory iNOS and anti-inflammatory-TREM2 markers.

PDGFRβ(h) = biological target: T2, PDGFRβ(h) (Homo sapiens, UniProt P09619); test: Eurofins KinaseProfiler radiometric kinase assay; format: biochemical; conditions: read-out: PDGFRβ(h) % Residual activity
T2 construct: purchased Eurofins KinaseProfiler (Eurofins Cerep)

Lyn(h) = biological target: T3, Lyn(h) (Homo sapiens, UniProt P07948); test: Eurofins KinaseProfiler radiometric kinase assay; format: biochemical; conditions: for Lyn inhibition: 10 µM; for remaining activity at 10 µM: read-out: Lyn(h) % Residual activity
T3 construct: purchased Eurofins KinaseProfiler (Eurofins Cerep)

MST1(h) = biological target: T4, MST1(h) (Homo sapiens, UniProt Q13043); test: Eurofins KinaseProfiler radiometric kinase assay; format: biochemical; conditions: read-out: MST1(h) % Residual activity
T4 construct: purchased Eurofins KinaseProfiler (Eurofins Cerep)

mTOR(h) = biological target: T5, mTOR(h) (Homo sapiens, UniProt P42345); test: Eurofins KinaseProfiler radiometric kinase assay; format: biochemical; conditions: read-out: mTOR(h) % Residual activity
T5 construct: purchased Eurofins KinaseProfiler (Eurofins Cerep)

[2] = biological target: T6, PI3 Kinase (p110α/p85α)(h) (Homo sapiens, UniProt P42336); test: Eurofins KinaseProfiler radiometric kinase assay; format: biochemical; conditions: read-out: PI3 Kinase (p110α/p85α)(h) % Residual activity
T6 construct: purchased Eurofins (Eurofins Cerep) KinaseProfiler

IGF-1R(h) = biological target: T7, IGF-1R(h) (Homo sapiens, UniProt P08069); test: Eurofins KinaseProfiler radiometric kinase assay; format: biochemical; conditions: read-out: IGF-1R(h) % Residual activity
T7 construct: purchased Eurofins KinaseProfiler (Eurofins Cerep)

[3] = biological target: T8, PI3 Kinase (p110β/p85α)(h) (Homo sapiens, UniProt P42338); test: Eurofins KinaseProfiler radiometric kinase assay; format: biochemical; conditions: read-out: PI3 Kinase (p110β/p85α)(h) % Residual activity
T8 construct: purchased Eurofins (Eurofins Cerep) KinaseProfiler

Aurora-A(h) = biological target: T9, Aurora-A(h) (Homo sapiens, UniProt O14965); test: Eurofins KinaseProfiler radiometric kinase assay; format: biochemical; conditions: read-out: Aurora-A(h) % Residual activity
T9 construct: purchased Eurofins KinaseProfiler (Eurofins Cerep)

PKG1α(h) = biological target: T10, PKG1α(h) (Homo sapiens, UniProt Q13976); test: Eurofins KinaseProfiler radiometric kinase assay; format: biochemical; conditions: read-out: PKG1α(h) % Residual activity
T10 construct: purchased Eurofins KinaseProfiler (Eurofins Cerep)

LOK(h) = biological target: T11, LOK(h) (Homo sapiens, UniProt O94804); test: Eurofins KinaseProfiler radiometric kinase assay; format: biochemical; conditions: for LOK inhibition: 10 µM; for remaining activity at 10 µM: read-out: LOK(h) % Residual activity
T11 construct: purchased Eurofins KinaseProfiler (Eurofins Cerep)

Rse(h) = biological target: T12, Rse(h) (Homo sapiens, UniProt Q06418); test: Eurofins KinaseProfiler radiometric kinase assay; format: biochemical; conditions: read-out: Rse(h) % Residual activity
T12 construct: purchased Eurofins (Eurofins Cerep) KinaseProfiler

CHK1(h) = biological target: T13, CHK1(h) (Homo sapiens, UniProt O14757); test: Eurofins KinaseProfiler radiometric kinase assay; format: biochemical; conditions: read-out: CHK1(h) % Residual activity
T13 construct: purchased Eurofins KinaseProfiler (Eurofins Cerep)

KDR(h) = biological target: T14, KDR(h) (Homo sapiens, UniProt P35968); test: Eurofins KinaseProfiler radiometric kinase assay; format: biochemical; conditions: read-out: KDR(h) % Residual activity
T14 construct: purchased Eurofins KinaseProfiler (Eurofins Cerep)

MEK1(h) = biological target: T15, MEK1(h) (Homo sapiens, UniProt Q02750); test: Eurofins KinaseProfiler radiometric kinase assay; format: biochemical; conditions: read-out: MEK1(h) % Residual activity
T15 construct: purchased Eurofins KinaseProfiler (Eurofins Cerep)

ASK1(h) = biological target: T16, ASK1(h) (Homo sapiens, UniProt Q99683); test: Eurofins KinaseProfiler radiometric kinase assay; format: biochemical; conditions: read-out: ASK1(h) % Residual activity
T16 construct: purchased Eurofins KinaseProfiler (Eurofins Cerep)

[4] = biological target: T17, PI3 Kinase (p110δ/p85α)(h) (Homo sapiens, UniProt O00329); test: Eurofins KinaseProfiler radiometric kinase assay; format: biochemical; conditions: read-out: PI3 Kinase (p110δ/p85α)(h) % Residual activity
T17 construct: purchased Eurofins (Eurofins Cerep) KinaseProfiler

Plk3(h) = biological target: T18, Plk3(h) (Homo sapiens, UniProt Q9H4B4); test: Eurofins KinaseProfiler radiometric kinase assay; format: biochemical; conditions: read-out: Plk3(h) % Residual activity
T18 construct: purchased Eurofins KinaseProfiler (Eurofins Cerep)

[5] = test system: primary rat cerebellar granule neurons (CGNs); test: Neurotoxicity, cell viability in CGNs (MTT); format: cell-based; conditions: 5, 10, and 25 μM, 24 h
Description: A preliminary cell viability assessment was conducted in primary rat cerebellar granule neurons (CGNs), which are considered a reliable model for studying cellular and molecular mechanisms of survival/apoptosis and neurodegeneration/neuroprotection.
Primary cerebellar granule cells were dissociated from cerebella and plated on 96-well plates, previously coated with 10 μg/mL poly-L-lysine, at a density of 1.2 × 10^5 cells/0.2 mL medium/well in BME supplemented with 10% heat-inactivated FBS (Life Technologies), 2 mmol/L glutamine, 100 μmol/L gentamicin sulfate, and 25 mM KCl (all from Sigma-Aldrich). Sixteen hours later, 10 μM cytosine arabinofuranoside (Sigma-Aldrich) was added to avoid glial proliferation. After 7 days in vitro, differentiated neurons were shifted to serum-free BME medium and exposed to increasing concentrations (5 μM, 10 μM, 25 μM) of compounds of interest for 24 h. Then, cell viability was evaluated through the MTT assay.
For MTT assay, thiazolyl blue was added to the culture medium at a final concentration of 0.1 mg/mL. Following a 20 min incubation at 37 °C in the dark, the MTT precipitate was dissolved in 0.1 M Tris–HCl pH 7.5 buffer containing 5% Triton X-100 (all from Sigma-Aldrich) and absorbance was read at 570 nm in a microplate spectrophotometric reader (Bio-Rad).

Fyn(h) = biological target: T19, Fyn(h) (Homo sapiens, UniProt P06241); test: Eurofins KinaseProfiler radiometric kinase assay; format: biochemical; conditions: for Fyn inhibition: 10 µM; for remaining activity at 10 µM: read-out: Fyn(h) % Residual activity
T19 construct: purchased Eurofins KinaseProfiler (Eurofins Cerep)

CDK6/cyclinD3(h) = biological target: T20, CDK6/cyclinD3(h) (Homo sapiens, UniProt Q00534); test: Eurofins KinaseProfiler radiometric kinase assay; format: biochemical; conditions: read-out: CDK6/cyclinD3(h) % Residual activity
T20 construct: purchased Eurofins KinaseProfiler (Eurofins Cerep)

T19 sequence (P06241 whole entry): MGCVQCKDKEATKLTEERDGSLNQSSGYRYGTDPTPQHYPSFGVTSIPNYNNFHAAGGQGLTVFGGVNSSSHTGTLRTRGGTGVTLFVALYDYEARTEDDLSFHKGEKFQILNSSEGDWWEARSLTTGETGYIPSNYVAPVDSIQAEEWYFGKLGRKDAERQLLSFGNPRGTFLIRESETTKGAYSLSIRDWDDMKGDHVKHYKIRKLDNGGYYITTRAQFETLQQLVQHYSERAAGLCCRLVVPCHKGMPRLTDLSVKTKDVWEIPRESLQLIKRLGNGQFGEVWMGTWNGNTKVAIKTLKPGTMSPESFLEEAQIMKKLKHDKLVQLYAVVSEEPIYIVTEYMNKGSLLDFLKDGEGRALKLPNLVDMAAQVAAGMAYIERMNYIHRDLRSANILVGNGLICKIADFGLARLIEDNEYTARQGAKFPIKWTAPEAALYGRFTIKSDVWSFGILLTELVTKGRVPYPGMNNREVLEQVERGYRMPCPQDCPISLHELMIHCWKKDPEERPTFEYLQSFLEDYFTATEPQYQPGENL
T3 sequence (P07948 whole entry): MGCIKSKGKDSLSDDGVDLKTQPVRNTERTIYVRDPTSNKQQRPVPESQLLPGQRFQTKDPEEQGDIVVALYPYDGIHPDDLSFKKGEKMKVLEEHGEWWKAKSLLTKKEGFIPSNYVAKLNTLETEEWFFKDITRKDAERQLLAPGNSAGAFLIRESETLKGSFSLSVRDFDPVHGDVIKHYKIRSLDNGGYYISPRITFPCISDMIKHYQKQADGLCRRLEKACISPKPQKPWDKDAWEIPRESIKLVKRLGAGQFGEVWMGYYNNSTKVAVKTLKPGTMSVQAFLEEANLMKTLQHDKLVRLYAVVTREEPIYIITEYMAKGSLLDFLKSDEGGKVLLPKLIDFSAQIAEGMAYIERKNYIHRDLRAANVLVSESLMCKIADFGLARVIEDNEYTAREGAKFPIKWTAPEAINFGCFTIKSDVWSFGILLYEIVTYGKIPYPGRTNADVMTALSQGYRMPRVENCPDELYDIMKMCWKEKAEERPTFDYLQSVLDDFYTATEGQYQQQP
T11 sequence (O94804 whole entry): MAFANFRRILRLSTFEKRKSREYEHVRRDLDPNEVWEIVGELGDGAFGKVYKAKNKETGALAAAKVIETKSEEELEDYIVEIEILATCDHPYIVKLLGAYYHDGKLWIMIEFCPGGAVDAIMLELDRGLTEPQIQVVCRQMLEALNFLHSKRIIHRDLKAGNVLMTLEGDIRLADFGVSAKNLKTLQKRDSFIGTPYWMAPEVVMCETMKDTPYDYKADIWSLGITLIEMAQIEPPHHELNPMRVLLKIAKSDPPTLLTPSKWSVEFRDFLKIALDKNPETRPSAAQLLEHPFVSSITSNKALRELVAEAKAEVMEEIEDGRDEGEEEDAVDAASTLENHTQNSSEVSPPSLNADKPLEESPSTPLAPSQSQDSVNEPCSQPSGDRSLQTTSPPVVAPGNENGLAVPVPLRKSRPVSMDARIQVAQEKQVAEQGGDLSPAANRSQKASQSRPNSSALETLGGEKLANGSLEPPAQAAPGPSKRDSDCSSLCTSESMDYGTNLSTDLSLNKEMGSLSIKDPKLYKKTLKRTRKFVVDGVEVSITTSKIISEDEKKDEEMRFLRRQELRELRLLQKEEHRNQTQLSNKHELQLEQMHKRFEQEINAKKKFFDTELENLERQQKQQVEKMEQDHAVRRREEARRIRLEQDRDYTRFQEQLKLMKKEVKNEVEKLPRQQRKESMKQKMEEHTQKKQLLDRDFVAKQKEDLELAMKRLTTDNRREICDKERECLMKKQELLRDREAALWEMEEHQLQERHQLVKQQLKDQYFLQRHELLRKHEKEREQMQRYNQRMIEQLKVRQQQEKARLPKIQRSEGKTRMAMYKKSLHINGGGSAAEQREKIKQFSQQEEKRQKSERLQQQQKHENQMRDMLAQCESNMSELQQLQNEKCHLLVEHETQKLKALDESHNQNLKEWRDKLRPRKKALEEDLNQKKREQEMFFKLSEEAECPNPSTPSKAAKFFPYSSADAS
T2 sequence (P09619 33-1106): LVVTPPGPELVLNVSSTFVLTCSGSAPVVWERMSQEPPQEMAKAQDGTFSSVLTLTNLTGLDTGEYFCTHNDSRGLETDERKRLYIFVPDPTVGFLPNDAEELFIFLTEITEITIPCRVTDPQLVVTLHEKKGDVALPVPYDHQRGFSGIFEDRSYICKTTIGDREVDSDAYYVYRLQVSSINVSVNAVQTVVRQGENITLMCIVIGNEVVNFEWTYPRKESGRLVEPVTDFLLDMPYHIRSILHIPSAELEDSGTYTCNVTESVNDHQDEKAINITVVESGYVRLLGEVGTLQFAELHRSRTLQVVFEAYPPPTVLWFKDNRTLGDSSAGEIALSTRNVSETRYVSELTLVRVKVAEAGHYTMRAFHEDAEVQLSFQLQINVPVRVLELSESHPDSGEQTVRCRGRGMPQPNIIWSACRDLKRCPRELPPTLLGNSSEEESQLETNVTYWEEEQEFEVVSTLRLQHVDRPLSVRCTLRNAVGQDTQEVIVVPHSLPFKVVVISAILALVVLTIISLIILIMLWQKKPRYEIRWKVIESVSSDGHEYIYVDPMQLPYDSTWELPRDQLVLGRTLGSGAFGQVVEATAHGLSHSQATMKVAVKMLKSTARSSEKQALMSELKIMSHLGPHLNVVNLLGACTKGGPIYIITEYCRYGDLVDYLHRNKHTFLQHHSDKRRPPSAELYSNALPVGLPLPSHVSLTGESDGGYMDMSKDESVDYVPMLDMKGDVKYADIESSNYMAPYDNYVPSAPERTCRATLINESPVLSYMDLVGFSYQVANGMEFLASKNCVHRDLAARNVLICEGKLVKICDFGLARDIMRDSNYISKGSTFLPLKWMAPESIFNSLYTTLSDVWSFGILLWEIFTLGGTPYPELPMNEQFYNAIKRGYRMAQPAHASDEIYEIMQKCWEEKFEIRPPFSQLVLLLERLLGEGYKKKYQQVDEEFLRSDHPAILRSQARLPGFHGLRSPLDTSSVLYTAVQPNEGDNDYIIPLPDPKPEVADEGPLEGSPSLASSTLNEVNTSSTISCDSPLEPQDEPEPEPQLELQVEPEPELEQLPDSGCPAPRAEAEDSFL
T15 sequence (Q02750 whole entry): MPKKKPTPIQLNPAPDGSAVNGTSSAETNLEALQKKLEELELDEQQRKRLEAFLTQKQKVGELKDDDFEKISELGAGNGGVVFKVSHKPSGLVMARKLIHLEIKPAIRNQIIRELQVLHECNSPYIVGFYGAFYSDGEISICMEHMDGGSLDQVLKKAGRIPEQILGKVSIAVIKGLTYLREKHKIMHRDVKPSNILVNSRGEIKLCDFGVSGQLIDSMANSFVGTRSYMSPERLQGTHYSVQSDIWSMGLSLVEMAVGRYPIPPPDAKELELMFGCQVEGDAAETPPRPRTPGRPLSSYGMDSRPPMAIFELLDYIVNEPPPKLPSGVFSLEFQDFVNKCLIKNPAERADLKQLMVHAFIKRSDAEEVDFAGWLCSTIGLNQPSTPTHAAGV
T16 sequence (Q99683 whole entry): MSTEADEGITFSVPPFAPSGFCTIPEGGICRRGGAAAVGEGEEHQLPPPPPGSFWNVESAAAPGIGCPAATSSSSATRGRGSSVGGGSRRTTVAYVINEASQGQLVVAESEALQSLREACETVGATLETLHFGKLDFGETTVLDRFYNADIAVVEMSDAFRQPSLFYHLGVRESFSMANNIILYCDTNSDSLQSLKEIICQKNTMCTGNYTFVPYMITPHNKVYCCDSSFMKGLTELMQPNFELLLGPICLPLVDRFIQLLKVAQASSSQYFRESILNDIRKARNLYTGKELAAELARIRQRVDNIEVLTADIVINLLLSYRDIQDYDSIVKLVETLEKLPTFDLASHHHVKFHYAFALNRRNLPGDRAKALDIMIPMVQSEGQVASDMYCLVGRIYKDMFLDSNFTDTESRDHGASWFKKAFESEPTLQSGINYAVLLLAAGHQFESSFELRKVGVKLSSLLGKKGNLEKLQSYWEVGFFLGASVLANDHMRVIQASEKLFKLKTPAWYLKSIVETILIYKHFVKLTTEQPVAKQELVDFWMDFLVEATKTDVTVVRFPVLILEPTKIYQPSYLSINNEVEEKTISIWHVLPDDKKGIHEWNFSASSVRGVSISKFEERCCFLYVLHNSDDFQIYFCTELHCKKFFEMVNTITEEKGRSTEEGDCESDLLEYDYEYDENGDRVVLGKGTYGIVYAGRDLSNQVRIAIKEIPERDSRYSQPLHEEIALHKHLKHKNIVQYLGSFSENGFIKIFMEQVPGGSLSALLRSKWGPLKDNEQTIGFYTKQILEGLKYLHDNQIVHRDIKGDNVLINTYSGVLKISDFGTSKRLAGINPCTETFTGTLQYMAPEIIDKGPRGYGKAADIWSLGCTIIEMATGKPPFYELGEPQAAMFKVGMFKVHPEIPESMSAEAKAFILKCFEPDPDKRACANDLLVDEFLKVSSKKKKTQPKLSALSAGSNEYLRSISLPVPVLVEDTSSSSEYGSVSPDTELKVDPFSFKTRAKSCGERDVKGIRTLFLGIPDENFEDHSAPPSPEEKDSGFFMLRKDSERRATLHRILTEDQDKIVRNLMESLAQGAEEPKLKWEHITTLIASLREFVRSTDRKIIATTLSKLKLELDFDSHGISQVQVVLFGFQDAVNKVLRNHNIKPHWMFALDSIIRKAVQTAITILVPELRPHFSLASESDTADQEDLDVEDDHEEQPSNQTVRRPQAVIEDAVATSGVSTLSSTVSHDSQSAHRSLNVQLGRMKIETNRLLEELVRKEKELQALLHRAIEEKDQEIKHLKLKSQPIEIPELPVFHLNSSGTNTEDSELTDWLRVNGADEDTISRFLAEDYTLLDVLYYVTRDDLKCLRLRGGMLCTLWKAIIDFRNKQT

| SMILES | IC50 (FYNα) | remaining activity at 10 µM (IRAK4(h)) | TREM2 expression (M2 marker) vs LPS [1] | iNOS expression (M1 marker) vs LPS [1] | remaining activity at 10 µM (PDGFRβ(h)) | Lyn inhibition (Lyn(h)) | remaining activity at 10 µM (Lyn(h)) | remaining activity at 10 µM (MST1(h)) | remaining activity at 10 µM (mTOR(h)) | remaining activity at 10 µM [2] | remaining activity at 10 µM (IGF-1R(h)) | remaining activity at 10 µM [3] | remaining activity at 10 µM (Aurora-A(h)) | remaining activity at 10 µM (PKG1α(h)) | LOK inhibition (LOK(h)) | remaining activity at 10 µM (LOK(h)) | remaining activity at 10 µM (Rse(h)) | remaining activity at 10 µM (CHK1(h)) | remaining activity at 10 µM (KDR(h)) | remaining activity at 10 µM (MEK1(h)) | further results |
| --- | --- | --- | --- | --- | --- | --- | --- | --- | --- | --- | --- | --- | --- | --- | --- | --- | --- | --- | --- | --- | --- |
| Br.Cc1sc(NCc2ccccc2)nc1-c1c[nH]c2ncc(Br)cc12 [Compound 41, N-Benzyl-4-(5-bromo-1H-pyrrolo[2,3-b]pyridin-3-yl)-5-methylthiazol-2-amine Hydrobromide] | 50 ± 10 nM | 52% | no significant variations | notably decreased the M1 marker at both tested concentrations | 95% | completely inhibited | 1% | 16% | 86% | 97% | 83% | 89% | 11% | 80% | completely inhibited | 4% | 34% | 111% | 16% | 61% | remaining activity at 10 µM (ASK1(h)): 72%; remaining activity at 10 µM [4]: 66%; remaining activity at 10 µM (Plk3(h)): 89%; Increase in registered cell viability in comparison to control [5]: amplified; Neurotoxicity on CGNs (cell viability compared to control) [5]: not neurotoxic; Fyn inhibition (Fyn(h)): completely inhibited; remaining activity at 10 µM (Fyn(h)): -2%; remaining activity at 10 µM (CDK6/cyclinD3(h)): 86% |
| Br.Cc1sc(NCc2ccnc(Cl)c2)nc1-c1c[nH]c2ncccc12 [Compound 43, N-((2-Chloropyridin-4-yl)methyl)-5-methyl-4-(1H-pyrrolo[2,3-b]pyridin-3-yl)thiazol-2-amine Hydrobromide] | 44 ± 3 nM | 31% | no significant variations | significantly reduced the M1 marker only at the highest concentration | 93% | completely inhibited | 1% | 14% | 97% | 96% | 68% | 94% | 27% | 40% | completely inhibited | 4% | 98% | 112% | 15% | 35% | remaining activity at 10 µM (ASK1(h)): 97%; remaining activity at 10 µM [4]: 97%; remaining activity at 10 µM (Plk3(h)): 96%; Increase in registered cell viability in comparison to control [5]: amplified; Neurotoxicity on CGNs (cell viability compared to control) [5]: not neurotoxic; Fyn inhibition (Fyn(h)): completely inhibited; remaining activity at 10 µM (Fyn(h)): 0%; remaining activity at 10 µM (CDK6/cyclinD3(h)): 90% |
